Measurements from patent publication US20220323406A1, “METHODS AND COMPOSITIONS FOR DIFFERENTIATING STEM CELLS” (Massachusetts Institute of Technology, priority 2019, published 2022).

Experiments:
[1] = system: ENR+CD organoids (ISC to Paneth cell differentiation); experiment: Primary screen: CCh-stimulated lysozyme secretion LYZ.S, 2.5-D 384-well ENR+CD organoid differentiation; format: cell-based, mouse; conditions: primary screen
Description: (§1) High-throughput screening.

[2] = system: ENR+CD organoids (ISC to Paneth cell differentiation); experiment: Primary screen: basal (non-stimulated) lysozyme secretion LYZ.NS, 2.5-D 384-well ENR+CD organoid differentiation; format: cell-based, mouse; conditions: primary screen; for Z.LYZ.NS: standard z score
Description: as §1

ENR+CD organoids = experiment: Primary screen: ATP (CellTiter-Glo 3D, CTG) cell number/viability, 2.5-D 384-well ENR+CD organoids; conditions: primary screen; for Z.CTG: standard z score;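 on all read-outs here: compounds given at plating and again on day 3 over a 6-day differentiation from ENR+CV stem-cell-enriched precursors, ATP measured on day 6, plate median as control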
[3] = dose 0.08 uM, FC relative to plate median
[4] = dose 0.40 uM, FC relative to plate median
[5] = dose 2.00 uM, FC relative to plate median
[6] = dose 10.00 uM, FC relative to plate median
[7] = dose 0.08 uM, FC vs plate median
[8] = dose 0.40 uM, FC vs plate median
[9] = dose 2.00 uM, FC vs plate median
[10] = dose 10.00 uM, FC vs plate median

Compound | Z.LYZ.NS ([2]; dose 0.08 uM) | Z.LYZ.NS ([2]; dose 0.40 uM) | Z.LYZ.NS ([2]; dose 2.00 uM) | Z.LYZ.NS ([2]; dose 10.00 uM) | Dose.FC.LYZ.S ([1]; dose 0.08 uM) | Dose.FC.LYZ.S ([1]; dose 0.40 uM) | Dose.FC.LYZ.S ([1]; dose 2.00 uM) | Dose.FC.LYZ.S ([1]; dose 10.00 uM) | Dose.FC.LYZ.NS ([2]; dose 0.08 uM) | Z.LYZ.NS (standard z score) ([2]; dose 0.08 uM) | Dose.FC.LYZ.NS ([2]; dose 0.40 uM) | Z.LYZ.NS (standard z score) ([2]; dose 0.40 uM) | Dose.FC.LYZ.NS ([2]; dose 2.00 uM) | Z.LYZ.NS (standard z score) ([2]; dose 2.00 uM) | Dose.FC.LYZ.NS ([2]; dose 10.00 uM) | Z.LYZ.NS (standard z score) ([2]; dose 10.00 uM) | Dose.FC.CTG (ENR+CD organoids; dose 0.08 uM) | Z.CTG (standard z score) (ENR+CD organoids; dose 0.08 uM) | Dose.FC.CTG (ENR+CD organoids; dose 0.40 uM) | Z.CTG (standard z score) (ENR+CD organoids; dose 0.40 uM) | other results
Cn1cnc2c(F)c(Nc3ccc(Br)cc3Cl)c(C(=O)NOCCO)cc21 [Selumetinib (AZD6244)] | 0.181 | −0.188 | −0.847 | −1.220 | – | – | – | – | – | – | – | – | – | – | – | – | – | – | – | – | Dose.FC.LYZ.S [1, 3]: 0.004 log2 fold change; Dose.FC.LYZ.S [1, 4]: −0.047 log2 fold change; Dose.FC.LYZ.S [1, 5]: −0.175 log2 fold change; Dose.FC.LYZ.S [1, 6]: −0.211 log2 fold change; Dose.FC.LYZ.NS [2, 3]: 0.021 log2 fold change; Dose.FC.LYZ.NS [2, 4]: −0.022 log2 fold change; Dose.FC.LYZ.NS [2, 5]: −0.097 log2 fold change; Dose.FC.LYZ.NS [2, 6]: −0.140 log2 fold change; Dose.FC.CTG (ENR+CD organoids; [3]): 0.164 log2 fold change; Z.CTG (ENR+CD organoids; dose 0.08 uM): 0.393; Dose.FC.CTG (ENR+CD organoids; [4]): −0.165 log2 fold change; Z.CTG (ENR+CD organoids; dose 0.40 uM): −0.395; Dose.FC.CTG (ENR+CD organoids; [5]): −0.257 log2 fold change; Z.CTG (ENR+CD organoids; dose 2.00 uM): −0.613; Dose.FC.CTG (ENR+CD organoids; [6]): −0.852 log2 fold change; Z.CTG (ENR+CD organoids; dose 10.00 uM): −2.035
C[C@@H]1COCCN1c1cc(C2(S(C)(=O)=O)CC2)nc(-c2cccc3[nH]ccc23)n1 [AZ20] | – | – | – | – | −0.038 log2 fold change | −0.236 log2 fold change | −0.373 log2 fold change | −0.329 log2 fold change | 0.042 log2 fold change | 0.365 | −0.140 log2 fold change | −1.222 | −0.215 log2 fold change | −1.868 | −0.261 log2 fold change | −2.271 | −0.210 log2 fold change | −0.500 | −0.218 log2 fold change | −0.521 | Dose.FC.CTG (ENR+CD organoids; dose 2.00 uM): −1.054 log2 fold change; Z.CTG (standard z score) (ENR+CD organoids; dose 2.00 uM): −2.519; Dose.FC.CTG (ENR+CD organoids; dose 10.00 uM): −0.573 log2 fold change; Z.CTG (standard z score) (ENR+CD organoids; dose 10.00 uM): −1.368
O=C(O)Cn1nnc(-c2cc(N3CCC(Oc4cc(F)ccc4Br)CC3)no2)n1 [MK-8245] | 0.200 | 0.273 | −0.315 | −0.670 | – | – | – | – | – | – | – | – | – | – | – | – | – | – | – | – | Dose.FC.LYZ.S [1, 7]: 0.069 log2 fold change; Dose.FC.LYZ.S [1, 8]: 0.185 log2 fold change; Dose.FC.LYZ.S [1, 9]: −0.062 log2 fold change; Dose.FC.LYZ.S [1, 10]: −0.123 log2 fold change; Dose.FC.LYZ.NS [2, 7]: 0.023 log2 fold change; Dose.FC.LYZ.NS [2, 8]: 0.031 log2 fold change; Dose.FC.LYZ.NS [2, 9]: −0.036 log2 fold change; Dose.FC.LYZ.NS [2, 10]: −0.077 log2 fold change; Dose.FC.CTG (ENR+CD organoids; [7]): 0.156 log2 fold change; Dose.FC.CTG (ENR+CD organoids; [8]): −0.113 log2 fold change; Dose.FC.CTG (ENR+CD organoids; [9]): −0.021 log2 fold change; Dose.FC.CTG (ENR+CD organoids; [10]): −0.263 log2 fold change
O=C(c1ccc(F)cc1)N1CCC[C@H](c2nc(-c3ccc(F)cc3)no2)C1 [ADX-47273] | – | – | – | – | 0.147 log2 fold change | 0.147 log2 fold change | −0.039 log2 fold change | −0.070 log2 fold change | 0.269 log2 fold change | 2.346 | 0.053 log2 fold change | 0.457 | −0.033 log2 fold change | −0.286 | −0.036 log2 fold change | −0.311 | 0.115 log2 fold change | 0.274 | −0.034 log2 fold change | −0.082 | Dose.FC.CTG (ENR+CD organoids; dose 2.00 uM): −0.210 log2 fold change; Z.CTG (standard z score) (ENR+CD organoids; dose 2.00 uM): −0.501; Dose.FC.CTG (ENR+CD organoids; dose 10.00 uM): −0.039 log2 fold change; Z.CTG (standard z score) (ENR+CD organoids; dose 10.00 uM): −0.094
